In US11160785B2, “Methods and compositions for improving cognitive function” (AgeneBio, Inc., priority 2013, dated 2021):

Columns and labels:
[1] = test system: reelin in Entorhinal Cortex (EC2); test: Reelin mRNA in situ hybridization in entorhinal cortex of aged-impaired rats; type: in vivo, rat; details: 10 mg/kg/day for 28 days, compared to AI-VEH, p=0.033
Procedure: In situ hybridization was carried out as described by Haberman et al., (2008). Free-floating tissue sections were washed in 0.75% glycine in 0.1M phosphate buffer two times, followed by a single wash in phosphate buffer. After that, sections were reacted in Proteinase K buffer containing 1.0 μg/ml proteinase K for 30 minutes at 37° C. Sections were then treated with acetic anhydride solution (11.3% triethanolamine, 0.25% acetic anhydride, 0.04 M acetic acid) for 10 minutes at room temperature. This was followed by two 15-minute washes in 2× sodium chloride/citrate buffer (SSC buffer; 20× concentration, 3M NaCl, 0.3M sodium citrate). Next, sections were transferred to hybridization buffer containing 20% formamide, 0.4×Denhardt's solution, 4% dextran sulfate, and 1.6×SSC) supplemented with 0.25 mg/ml tRNA, 0.33 mg/ml sheared salmon sperm DNA, 100 mM DTT, and 1×10^7 cpm/ml 35S-UTP-labeled probe for overnight reaction at 60° C. The following day, sections were washed at 60° C. in 4×SSC/0.01M DTT and 2×SSC/50% formamide. They were then incubated with RNase (20 μg/ml) at 37° C. for 30 min. […] Slides were dried overnight, exposed to a phosphoimager screen, and quantified by using ImageQuant (GE Healthcare). Digital images were acquired of entorhinal cortical sections from the same levels for all animals and the subregion of interest was outlined and quantified. […]

[2] = test system: DG/CA3 regions of aMCI subjects; test: fMRI activity in DG/CA3 during lure stimuli correctly identified as similar; type: in vivo, human
[3] = test system: entorhinal cortex of aMCI subjects; test: fMRI activity in entorhinal cortex (EC) during successful memory judgments; type: in vivo, human; details: levetiracetam 125 mg twice a day for two weeks vs placebo
[4] = test system: aMCI subjects; test: explicit 3-alternative forced choice task (lure images); type: in vivo, human
Text: See Folstein et al., J Psychiatric Res 12: 189-98, (1975); Robbins et al., Dementia 5: 266-81, (1994); Rey, L'examen clinique en psychologie, (1964); Kluger et al., J Geriatr Psychiatry Neurol 12:168-79, (1999); Marquis et al., 2002 and Masur et al., 1994, or MATRICS consensus neuropsychological test battery which includes tests of working memory, speed of processing, attention, verbal learning, visual learning, reasoning and problem solving and social cognition. Another example of a cognitive test in humans is the explicit 3-alternative forced choice task. In this test, subjects are presented with color photographs of common objects consisting of a mix of three types of image pairs: similar pairs, identical pairs and unrelated foils. The second of the pair of similar objects is referred to as the “lure”. These image pairs are fully randomized and present individually as a series of images. Subjects are instructed to make a judgment as to whether the objects seen are new, old or similar. A “similar” response to the presentation of a lure stimulus indicates successful memory retrieval by the subject.
The activity of the subject's medial temporal lobe is measured by functional MRI during the subject's participation in an explicit 3-alternative forced choice task, where participants view novel, repeated and similar (“lure”) stimuli. The Psychophysics Toolbox extensions in Matlab 7.0 (The MathWorks, Natick, Mass.) is used for stimulus presentation and behavioral data collection. Stimuli are color photographs of common objects. Each participant undergoes a series of testing runs during the functional imaging sessions, each run consisting of a mix of three types of image pairs: similar pairs, identical pairs and unrelated foils. These image pairs are fully randomized throughout the run and present individually as a series of images (see FIG. 6A). […]
The activity of the subject's medial temporal lobe is measured by functional MRI during the subject's participation in an explicit 3-alternative forced choice task, where participants view novel, repeated and similar (“lure”) stimuli. […]

[5] = test system: sematostatin in DG hilus; test: somatostatin in DG hilus after four weeks of osmotic minipump treatment (Example 5); type: in vivo, rat; details: levetiracetam 10 mg/kg/day in osmotic minipumps for four weeks, aged-impaired rats
[6] = cited from earlier work

For CC[C@@H](C(N)=O)N1CCCC1=O [levetiracetam, (2S)-2-(2-oxopyrrolidin-1-yl) butanamide], the “reelin mRNA expression in the lateral entorhinal cortex (EC2)” value [1] was “significantly increased the expression of reelin”, the “DG/CA3 hyperactivity during successful memory judgments” value ([2]; levetiracetam 62.5 mg BID for two weeks, cohort N=20) was “does not significantly reduce the DG/CA3 hyperactivity” and the “DG/CA3 activity during successful memory judgments” value ([2]; levetiracetam 125 mg twice a day for two weeks vs placebo, same aMCI subjects, p=0.037) was “reduces DG/CA3 hyper-activity”. For the same compound, the “DG/CA3 hyperactivity during successful memory judgments” value ([2]; levetiracetam 250 mg BID for two weeks, cohort N=17) was “does not significantly reduce the DG/CA3 hyperactivity”, the “EC activity during memory judgments” value [3] was “normalizes activity” and the “performance of aMCI subjects in the memory task (similar vs old responses to lures)” value ([4]; levetiracetam 62.5 mg BID for two weeks vs placebo, p=0.041) was “improves significantly”. The “performance of aMCI subjects in the memory task (similar vs old responses to lures)” value ([4]; levetiracetam 125 mg twice a day for two weeks vs placebo, p=0.039) was “improves significantly”, the “performance of aMCI subjects in the memory task (similar vs old responses to lures)” value ([4]; levetiracetam 250 mg BID for two weeks vs placebo, p=0.2396) was “does not significantly improve” and the “somatostatin in DG hilus” value [5] was “restores sematostatin in DG hilus”. For the same compound, the “plasma half-life expected in elderly” value ([6]; elderly, decreased renal function) was 9 to 10 h, the absorption ([6]; in vivo, po) was “rapidly and almost completely absorbed” and the “time of peak plasma concentrations” value ([6]; in vivo, po) was “about 1 hour”. For the same compound, the plasma half-life ([6]; in vivo) was “approximately 7±1 hour”, the “time to steady state” value ([6]; in vivo) was 2 days and the “effect of food on bioavailability” value ([6]; oral) was “not affected by food”.
